Source: patent EP3381897A1, “DERIVATIVES OF THE DISODIUM 2,2'-{CARBONYLBIS[IMINO-3,1-PHENYLENECARBONYLIMINO(1-METHYL-1H-PYRROLE-4,2-DIYL)CARBONYLIMINO]}DINAPHTHALENE-1,5-DISULFONATE SALT AND RELATED COMPOUNDS AS HEPARANASE INHIBITORS FOR THE TREATMENT OF CANCER” (Leadiant Biosciences SA, priority 2017, dated 2018)
Where a name gives a salt, the structure may show the parent alone.

Columns and labels:
MMP-9 = assay: Real-Time quantitative PCR of mRNA gene expression in HT1080 cells; assay type: cell-based, human; settings: 2.5 uM, 24 h
[1] = test system: HT1080 (human fibrosarcoma); assay: Cell adhesion assay on matrigel coated wells; assay type: cell-based; settings: percent of adhesion with respect to the control (100%)
Protocol: Cell surface, non-integrin molecules such as heparan sulfate proteoglycans (HSPGs) may be involved in the regulation of early adhesive stages of cell-ECM interactions. A cell adhesion assay has been employed to determine if the newly designed heparanase inhibitors were able to interfere with adhesion properties of cancer cells. […] Then cells were collected, washed in complete medium, and added to matrigel coated wells in triplicate, at previously identified optimal seeding density, and incubated at 37 °C in complete medium for times ranging from 15 minutes to 4h, according to the cell line. […] Optical density was measured at 560 nm by Victor 3 (Perkin-Elmer) plate analyzer. Each experiment was repeated three times. Table 4. […] In Invasion assay, data were expressed as the percent invasion (range) with respect to cell migration through uncoated insert membrane.

FGF-2 = assay: Real-Time quantitative PCR of mRNA gene expression in HT1080 cells; assay type: cell-based, human; settings: 2.5 uM, 24 h
VEGF = assay: as above; assay type: cell-based, human; settings: 2.5 uM, 24 h
FGF-1 = assay: as above; assay type: cell-based, human; settings: 2.5 uM, 24 h
HPSE-1 = settings: 2.5µM; HT1080 cells
Protocol: To evaluate the effect of heparanase inhibitors on the tumor transcription of genes encoding for proangiogenic factors, such as FGF1/2, VEGF, MMP-9, HSPE-1, the relative mRNA levels were analyzed by quantitative Real-Time Quantitative PCR. To perform the assay, HT1080 (human fibrosarcoma) cells were cultured in complete medium containing 10%FCS (fetal calf serum). Cells were plated in 24-well plates and treated at fixed concentration (i.e., highest non-toxic concentration) of test compounds. After 24 h, cells were detached, collected and total RNA extracted by RNeasy Mini Kit (QIAGEN). Following reverse transcription step, FGF1/2, VEGF, MMP-9, HSPE-1 mRNA levels, were quantified by qPCR using the advanced Universal SYBR Green Supermix (Bio Rad) and ABI PRISM 7900HT Thermal Cycler System (Perkin Elmer), according to the manufacturer's instructions. […] Relative levels of RNA were calculated using the ddCt method. Standard curve and sample data were run in duplicate.

[2] = test system: HT1080 (human fibrosarcoma); assay: Matrigel cell invasion assay; assay type: cell-based; settings: HT-1080
Protocol: Heparanase inhibitors were then evaluated for their activity on the invasive potential of HT1080 (human fibrosarcoma) human cell lines, using the Matrigel cell invasion assay which allows to assess the cell invasion ability of malignant and normal cells. Invasion assay was performed using BioCoat cell culture inserts (BioCoat 8.0µm PET Membrane 24 Well Permeable Supports, Corning). Filters were coated with 100 µl of 300 µg/ml Matrigel dissolved in coating buffer (0.01 M Tris pH 8.0, 0.7% NaCl) (Becton-Dickinson Sciences). DMEM (Dulbecco's Modified Eagle's Medium) containing 5% FBS was added to the lower chambers. Cells were pre-treated with heparanase inhibitors for 24 h, detached and added to the upper chambers in media containing the inhibitors. Cells were allowed to invade for 24 h at 37°C in a CO2 incubator and then unmigrated cells were removed from the upper chamber with a cotton swab. […] Test compounds were analyzed at fixed concentration for several fields, in duplicates. Activity of test compounds was compared to the reference compound. Activity of most interesting compound was confirmed in a second cell invasion assay. Data were expressed as the percent invasion with respect to cell migration through uncoated insert membrane. (Table 4) Table 4. […] In Invasion assay, data were expressed as the percent invasion (range) with respect to cell migration through uncoated insert membrane.

[3] = test system: HT1080 (human fibrosarcoma); assay: SRB Cell Cytotoxicity Assay; assay type: cell-based
Protocol: (§1) SRB Cell Cytotoxicity Assay is an assay based upon the quantitative staining of cellular proteins by sulforhodamine B (SRB). This assay can be used for high-throughput drug screening ([…], Nature Protocol. 2006, 1, 112). Sulforhodamine B is an anionic aminoxanthene dye that forms an electrostatic complex with the basic amino acid residues of proteins under moderately acid conditions, which provides a sensitive linear response. […] Inhibition of cell proliferation was then measured by the classical colorimetric SRB Cell Cytotoxicity assay. Absorbance was measured by spectrophotometer at a wavelength of 510 nm and cell proliferation was determined as percent with respect to control cells (cells treated with the vehicle alone). EC50 values were then determined by GraphPad Prism.

[4] = test system: U87MG (human glioblastoma astrocytoma); assay: SRB Cell Cytotoxicity Assay; assay type: cell-based
Protocol: as §1

[5] = test system: U2OS (human osteosarcoma); assay: SRB Cell Cytotoxicity Assay; assay type: cell-based
Protocol: as §1

For `Cn1cc(NC(=O)Nc2cc(C(=O)Nc3cccc(C(=O)Nc4ccc5c(S(=O)(=O)O)cccc5c4S(=O)(=O)O)c3)n(C)c2)cc1C(=O)Nc1cccc(C(=O)Nc2ccc3c(S(=O)(=O)O)cccc3c2S(=O)(=O)O)c1` [Example 6, Disodium 2,2'-{carbonylbis[imino(1-methyl-1H-pyrrole-4,2-diyl)carbonylimino-3,1-phenylenecarbonylimino]}dinaphthalene-1,5-disulfonate salt], the “Gene Expression (% mRNA vs. control) MMP-9” value (MMP-9) was “∼ 80%”, the “Adhesion Assay (%) HT1080; 2.5 µM” value ([1]; 2.5 µM) was “∼ 86%” and the “Gene Expression (% mRNA vs. control) FGF-2” value (FGF-2) was “∼ 98%”. The “Gene Expression (% mRNA vs. control) VEGF” value (VEGF) was “∼ 85%”, the “Gene Expression (% mRNA vs. control) FGF-1” value (FGF-1) was “∼ 87%” and the “silencing of heparanase gene (in words)” value (HPSE-1) was “almost complete silencing of heparanase gene”.

With `Cn1cc(NC(=O)Nc2cc(C(=O)Nc3cc(C(=O)Nc4ccc5c(S(=O)(=O)O)cccc5c4S(=O)(=O)O)n(C)c3)n(C)c2)cc1C(=O)Nc1cc(C(=O)Nc2ccc3c(S(=O)(=O)O)cccc3c2S(=O)(=O)O)n(C)c1` [FCE27266, disodium 2,2'-{carbonylbis[imino(1-methyl-1H-pyrrole-4,2-diyl)carbonylimino(1-methyl-1H-pyrrole-4,2-diyl)carbonylimino]}dinaphthalene-1,5-disulfonate salt] the “Gene Expression (% mRNA vs. control) MMP-9” value (MMP-9) was “∼ 100%”, the “Adhesion Assay (%) HT1080; 2.5 µM” value ([1]; 2.5 µM) was “∼ 93%” and the “Gene Expression (% mRNA vs. control) FGF-2” value (FGF-2) was “∼ 86%”. For the same molecule, the “Gene Expression (% mRNA vs. control) VEGF” value (VEGF) was “∼ 100%”, the “Gene Expression (% mRNA vs. control) FGF-1” value (FGF-1) was “∼ 44%” and the “silencing of heparanase gene (in words)” value (HPSE-1) was “almost complete silencing of heparanase gene”.

`Cn1cc(NC(=O)c2cccc(NC(=O)Nc3cccc(C(=O)Nc4cc(C(=O)Nc5ccc6c(S(=O)(=O)O)cccc6c5S(=O)(=O)O)n(C)c4)c3)c2)cc1C(=O)Nc1ccc2c(S(=O)(=O)[O-])cccc2c1S(=O)(=O)[O-].[Na+].[Na+]` [Example 1, Disodium 2,2'-{carbonylbis[imino-3,1-phenylenecarbonylimino(1-methyl-1H-pyrrole-4,2-diyl)carbonylimino]}dinaphthalene-1,5-disulfonate salt] was tested, and the “Adhesion Assay (%) HT1080; 2.5 µM” value ([1]; 2.5 µM) was “∼ 86%”.

`Cc1ccc(C(=O)Nc2ccc(S(=O)(=O)O)c3cc(S(=O)(=O)O)cc(S(=O)(=O)O)c23)cc1NC(=O)c1cccc(NC(=O)Nc2cccc(C(=O)Nc3cc(C(=O)Nc4ccc(S(=O)(=O)O)c5cc(S(=O)(=O)O)cc(S(=O)(=O)O)c45)ccc3C)c2)c1` [Suramin, suramin] was tested, and the inhibition at 2.5 µM [2] was less than 50%, the “Adhesion Assay (%) HT1080; 2.5 µM” value ([1]; Reference compound (Suramin) at 10 µM according to b319) was “∼ 100%” and the “interference with the cell growth (in words)” value (“interference” below) ([3]; HT1080, tested up to 2.5 µM) was “do not interfere with the cell growth”. For the same molecule, the IC50 ([3]; Homo sapiens, HT-1080, 72h treatment, read-out: Concentration of test compounds at which the cell growth is inhibited by 50 % HT1080) was greater than 2500 nM, the IC50 ([4]; Homo sapiens, U-87 MG, 72h treatment, read-out: Concentration of test compounds at which the cell growth is inhibited by 50 % U87MG) was greater than 2500 nM and the “interference” value ([4]; U87MG, tested up to 2.5 µM) was “do not interfere with the cell growth”. The IC50 ([5]; Homo sapiens, 72h treatment, read-out: Concentration of test compounds at which the cell growth is inhibited by 50 % U2OS) was greater than 2500 nM and the “interference” value ([5]; tested up to 2.5 µM) was “do not interfere with the cell growth”.

`O=C(Nc1cccc(C(=O)Nc2cc(C(=O)Nc3ccc4c(S(=O)(=O)[O-])cccc4c3S(=O)(=O)[O-])n(C3CC3)c2)c1)Nc1cccc(C(=O)Nc2cc(C(=O)Nc3ccc4c(S(=O)(=O)O)cccc4c3S(=O)(=O)O)n(C3CC3)c2)c1.[Na+].[Na+]` [Example 2, Disodium 2,2'-{carbonylbis[imino-3,1-phenylenecarbonylimino(1-cyclopropyl-1H-pyrrole-4,2-diyl)carbonylimino]}dinaphthalene-1,5-disulfonate salt] was tested, and the “Adhesion Assay (%) HT1080; 2.5 µM” value ([1]; 2.5 µM) was “∼ 88%”.
